Converted amounts (≈) assume the structure as drawn.
Key:
[1] = tested on: gastric juice secretion; test: Gastric juice secretion inhibition (Shay's method), subcutaneous; format: in vivo
[2] = tested on: Human Platelet; test: Human platelet aggregation inhibiting activity (aggregating agent ADP); format: cell-based; settings: human platelet rich plasma, read-out: ID50, human platelet aggregation inhibiting activity
Procedure: Blood was collected from healthy volunteers using a disposable syringe containing 3.8% sodium citrate from the saphnous vein. The blood was centrifuged for 10 minutes at 160×g. The resultant supernatant liquid was used as platelet rich plasma (PRP). Aggregation was induced by […] ADP (Adenosine diphosphate). The inhibition rate was calculated against a control aggregation of 100%.
ED50 (effective dose 50) is defined as the dosage required to produce a response in 50% of the subjects to whom the compound is given.

[3] = tested on: gastric mucous membrane; test: Protection against gastric mucous membrane lesion due to alcohol (Robert's method); format: in vivo; settings: rat, oral
Procedure: Gastric cytoprotection was measured according to the method of Robert et al (Gastroenterol 77, 433-443, 1979). The rats fasted overnight and were given a necrotizing agent (0.2N NaOH 1 ml/rat (Method A) or Absolute EtOH (Method B)) and killed one hour later for the examination of gastric lesions. The test drug was administered 30 minutes before the necrotizing agent. The length of the lesion was measured and expressed in terms of the ulcer index. The effect of the drug was expressed in terms of the inhibition rate against the ulcer index of a control animal.

[4] = Arterial blood pressure of anesthetized rats, intravenous injection; format: in vivo; settings: rat, i.v., pentobarbital anesthesia
Procedure: Under pentobarbital anesthesia (50 mg/kg s.c.), a catheter was inserted into the carotid artery. The blood pressure was measured via a pressure transducer on a polygraph.

[5] = tested on: platelet rich plasma; test: Anti-aggregatory effect in platelet rich plasma (Born's method; arachidonic acid, ADP and collagen); format: cell-based; settings: PRP of man or rabbit, ADP, collagen
[6] = Diarrhoea inducing action, subcutaneous; format: in vivo; settings: up to the dose of 3 mg/kg, rat
[7] = neutral aqueous solution; cited from earlier work
[8] = as recognized in prostaglandin E1 and E2; cited from earlier work

IC50 [2]	Compound	blood pressure reducing activity relative to prostaglandin E1 [4]	duration of blood pressure reducing activity compared with prostaglandin E1 [4]	anti-aggregatory effect compared with prostaglandin E1 [5]	diarrhoea inducing action [6]	also measured
–	5,6,7-trinor-4,9-inter-m-phenylene-17,18,19,20-tetranor-16-m-chlorophenoxy PGI2 [Compound 65]	–	–	–	–	effective dose in inhibiting gastric juice secretion [1]: 0.3 to 1 mg/kg; effective dose relative to the dose of prostaglandin E2, gastric juice secretion inhibition [1]: 0.1-0.3 times
0.048 µg/mL (≈ 0.128 µM)	CCCOC[C@H](O)/C=C/[C@@H]1[C@H]2c3cccc(CCC(=O)O)c3O[C@H]2C[C@H]1O (relative stereo) [5,6,7-trinor-4,8-inter-m-phenylene-2,17,18,19,20-pentanor-16-propoxy PGI2]	–	–	–	–	–
–	O=C(O)CCCc1cccc2c1O[C@H]1C[C@@H](O)[C@H](/C=C/[C@@H](O)COc3ccccc3)[C@@H]21 (relative stereo) [Compound 60, 5,6,7-trinor-4,8-inter-m-phenylene-17,18,19,20-tetranor-16-phenoxy PGI2]	–	–	–	–	effective dose relative to the dose of prostaglandin E2, gastric juice secretion inhibition [1]: 0.1-0.3 times
0.49 µg/mL (≈ 1.25 µM)	CCCOC[C@H](O)/C=C/[C@@H]1[C@H]2c3cccc(CCCC(=O)O)c3O[C@H]2C[C@H]1O (relative stereo) [Compound 66, 5,6,7-trinor-4,8-inter-m-phenylene-17,18,19,20-tertranor-16-propoxy PGI.su b.2]	–	–	–	–	–
–	CCOCC(C)(C)[C@H](O)/C=C/[C@@H]1[C@H]2c3cccc(CCCC(=O)O)c3O[C@H]2C[C@H]1O (relative stereo) [Compound 76, 5,6,7-trinor-4,8-inter-m-phenylene-16,16-dimethyl-18,19,20-trinor-17-ethoxyPGI2]	–	–	–	–	effective dose relative to the dose of prostaglandin E2, gastric juice secretion inhibition [1]: 0.1-0.3 times; gastric mucous membrane protecting activity relative to prostaglandin E2 [3]: 0.3-1 times
–	O=C(O)/C=C/Cc1cccc2c1O[C@H]1C[C@@H](O)[C@H](/C=C/[C@@H](O)c3ccccc3)[C@@H]21 (relative stereo) [Compound 97, 5,6,7-trinor-4,8-inter-m-phenylene-2,3-dehydro-16,17,18,19,20-pentanor-15-phenyl-PGI2]	1-2 times	more prolonged duration	comparable or stronger anti-aggregatory effect	do not exhibit the diarrhoea inducing actions	effective dose relative to the dose of prostaglandin E2, gastric juice secretion inhibition [1]: 0.1-0.3 times; gastric mucous membrane protecting activity relative to prostaglandin E2 [3]: 0.3-1 times
0.011 µg/mL (≈ 0.0283 µM)	CCCCC(C)[C@H](O)/C=C/[C@@H]1[C@H]2c3cccc(CCC(=O)O)c3O[C@H]2C[C@H]1O (stereo partly drawn) [5,6,7-trinor-4,8-inter-m-phenylene-2-nor-16-methyl PGI2]	–	–	–	–	–
0.0006 µg/mL (≈ 0.00154 µM)	CCC[C@H](C)C[C@H](O)/C=C/[C@@H]1[C@H]2c3cccc(CCC(=O)O)c3O[C@H]2C[C@H]1O [5,6,7-trinor-4,8-inter-m-phenylene-2-nor-17(S)-methyl PGI2]	–	–	–	–	–
0.031 µg/mL (≈ 0.077 µM)	CCCCC(C)[C@H](O)/C=C/[C@@H]1[C@H]2c3cccc(CCCC(=O)O)c3O[C@H]2C[C@H]1O (stereo partly drawn) [5,6,7-trinor-4,8-inter-m-phenylene-16-methyl PGI2]	–	–	–	–	–
0.005 µg/mL (≈ 0.0124 µM)	CCC[C@H](C)C[C@H](O)/C=C/[C@@H]1[C@H]2c3cccc(CCCC(=O)O)c3O[C@H]2C[C@H]1O [5,6,7-trinor-4,8-inter-m-phenylene-17(S)-methyl PGI2]	–	–	–	–	–
–	CCCCCCC(O)C#CC1C(O)CC2Oc3c(CCCC(=O)O)cccc3C21 (stereo not drawn) [Compound 6, 5,6,7,-trinor-4,8-inter-m-phenylene-13,14-didehydro-20-methyl-PGI2]	1-2 times	more prolonged duration	comparable or stronger anti-aggregatory effect	do not exhibit the diarrhoea inducing actions	–
–	O=C(O)CCCc1cccc2c1OC1CC(O)C(C#CC(O)C3CCCCC3)C21 (stereo not drawn) [Compound 9, 5,6,7,-trinor-4,8-inter-m-phenylene-13,14-didehydro-15-cyclohexyl-16,17,18,19,20-pentanor PGI2]	1-2 times	more prolonged duration	comparable or stronger anti-aggregatory effect	do not exhibit the diarrhoea inducing actions	–
–	COC(=O)CCCc1cccc2c1O[C@H]1C[C@@H](O)[C@H](C#CC(O)c3ccccc3)[C@@H]21 (stereo partly drawn) [Compound 19, 5,6,7-trinor-4,8-inter-m-phenylene-13,14-didehydro-15-phenyl-16,17,18,19,20-pentanor PGI2 methyl ester]	1-2 times	more prolonged duration	comparable or stronger anti-aggregatory effect	do not exhibit the diarrhoea inducing actions	effective dose relative to the dose of prostaglandin E2, gastric juice secretion inhibition [1]: 0.1-0.3 times; gastric mucous membrane protecting activity relative to prostaglandin E2 [3]: 0.3-1 times
–	CCCC(C)C[C@H](O)/C=C/[C@@H]1[C@H]2c3cccc(CCCC(=O)O)c3O[C@H]2C[C@H]1O (stereo partly drawn) [Compound 48, 5,6,7-trinor-4,8-inter-m-phenylene-17-α-methyl PGI2]	1-2 times	more prolonged duration	comparable or stronger anti-aggregatory effect	do not exhibit the diarrhoea inducing actions	–
–	CCCC(C)CC(O)C=CC1C(O)CC2Oc3c(CCCC(=O)O)cccc3C21 (stereo not drawn) [Compound 49, 5,6,7-trinor-4,8-inter-m-phenylene-17-β-methyl PGI2]	1-2 times	more prolonged duration	comparable or stronger anti-aggregatory effect	do not exhibit the diarrhoea inducing actions	–
–	CCCCC(C)C[C@H](O)/C=C/[C@@H]1[C@H]2c3cccc(CCCC(=O)O)c3O[C@H]2C[C@H]1O (stereo partly drawn) [Compound 55, 5,6,7-trinor-4,8-inter-m-phenylene-17-α-methyl-20-homo PGI2]	1-2 times	more prolonged duration	comparable or stronger anti-aggregatory effect	do not exhibit the diarrhoea inducing actions	–
–	CCCCC[C@H](O)/C=C/[C@@H]1[C@H]2C/C(=C/CCCC(=O)O)O[C@H]2C[C@H]1O [PGI2, Prostaglandin I2]	–	–	–	–	stability in aqueous solution [7]: very unstable even in a neutral aqueous solution
–	CCCCC[C@H](O)/C=C/[C@H]1[C@H](O)CC(=O)[C@@H]1C/C=C\CCCC(=O)O [prostaglandin E2]	–	–	–	–	diarrhoea inducing action of reference prostaglandins [8]: diarrhoea inducing actions recognized

— US4822804A, “5,6,7,-trinor-4,8-inter-m-phenylene 2-nor PGI2 derivatives and anti-ulcer, anti-thrombotic and anti-hypertensive pharmaceutical compositions containing them” (Toray Industries, Inc., priority 1981, dated 1989)
